# Laboratory results: PMC4788259 (PLoS Neglected Tropical Diseases, 2016)
# Test system: E. multilocularis metacestodes
# Test: PGI assay: phosphoglucose isomerase release from damaged metacestodes
# Type: cell-based, Echinococcus multilocularis
# Conditions: 10 μM, 5 days, single wells, relative to DB1127 (10 μM)
# Method in brief: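 E. multilocularis metacestode vesicles (strain H95, grown in BALB/c mice, 2–4 mm diameter) were exposed in vitro to compounds for 5 days. Damage was read as phosphoglucose isomerase released into the medium. Initial screening used 10 μM in single wells, with 0.1% DMSO as negative control. EC50 values were derived from this read-out.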
row,SMILES,PGI (% of DB1127 at 10 uM) [%]
1,N=c1c2ccccc2nnn1-c1cccc(C(F)(F)F)c1 [MMV665923],18.29
2,N=c1n(CCN2CCCCC2)c2ccccc2n1CC(=O)c1ccc(Cl)c(Cl)c1 [MMV396723],22.11
3,Cc1ccc2nc(C)cc(Nc3cccc(C(F)(F)F)c3)c2c1.Cl [MMV000326],7.52
4,CN1CCN(c2c3c(c(C#N)c4nc5ccccc5n24)CCC3)CC1 [MMV008127],-35.30
5,O=C(NC1CCCCC1)C(c1cccs1)N(CCc1ccccc1)C(=O)c1ccco1 (stereo not shown) [MMV666106],2.06
6,Cc1cc(Nc2ccc(C)c(Cl)c2)n2nc(C(F)(F)F)nc2n1 [MMV665874],-25.13
7,c1ccc(/C2=N/c3ccccc3/N=C(/c3ccccc3)c3ccccc32)cc1 [MMV007113],13.66
8,CC(C)(C)CC(C)(C)NCC(O)COc1ccc2c(c1)CCC2.Cl (stereo not shown) [MMV665817],-44.11
9,CC(C)(C)c1ccc(O)c(CNC2CCCCC2)c1 [MMV665785],1.27
10,COc1cccc(-c2nn(C)c3sc(C(=O)NCCN4CCN(c5ccccc5F)CC4)cc23)c1 [MMV019064],-17.87
11,CCCc1c(C)nc2ccc(Br)cc2c1O [MMV666095],-30.45
12,CNCCCNc1ccnc2cc(Cl)ccc12 [MMV020500],-31.62
13,O=C(Nc1ccc(CN2CCOCC2)cc1)c1ccc(-c2cc(Cl)ccc2Cl)o1 [MMV020651],-24.05
14,CCCc1c(C)nc2ccccc2c1O [MMV666081],-67.20
15,Cc1ccc2c(C)nc(Nc3nc(C)cc(-c4ccccc4)n3)nc2c1 [MMV007041],-2.18
16,COc1ccc(C2=C(c3ccc(OC)cc3)C3(c4ccccc4)C(=O)C2(c2ccccc2)C2C(=O)N(c4ccc(C)cc4)C(=O)C23)cc1 (stereo not shown) [MMV666101],-51.33
17,CCC(C)NCC(O)(c1ccc(Cl)cc1)c1ccc(Cl)cc1 (stereo not shown) [MMV665928],-109.93
18,COc1ccccc1CNC(=O)CCn1c(=O)[nH]c2ccccc2c1=O [MMV665916],-47.23
19,Cc1sc(NC(=O)c2ccccc2)c(C(c2cccs2)N2CCN(c3ccccc3)CC2)c1C (stereo not shown) [MMV396652],-26.88
20,Cc1ccc(-c2cc(C(=O)Nc3ccc(S(=O)(=O)N4CCCCC4)cc3)[nH]n2)c(O)c1 [MMV665906],-8.23
21,COc1ccc2nc(C)cc(Nc3cccc(O)c3)c2c1.Cl [MMV008212],-12.96

row,SMILES,PGI (% of DB1127 at 10 uM) [%]
1,COc1ccc(C=C2SC(Nc3ccc(F)cc3)=NC2=O)c(OC)c1 [MMV084434],7.76
2,CCOc1cc2c(cc1OCC)C(c1cc(Cl)ccc1O)NCC2 (stereo not shown) [MMV000478],32.45
3,Cc1cc(C)cc(Nc2cc(C)nc3nc(C(F)(F)F)nn23)c1 [MMV011259],-21.18
4,COc1cccc(Nc2nc(N)c3ccccc3n2)c1.Cl [MMV019199],-26.29
5,Cc1cccc(N2C(=O)C3C(C2=O)C2(c4ccccc4)C(=O)C3(c3ccccc3)C(c3ccc4c(c3)OCO4)=C2c2ccc3c(c2)OCO3)c1 (stereo not shown) [MMV007228],7.95
6,Oc1ccc(Cl)cc1CNc1nc2ccccc2[nH]1 [MMV665850],-85.60
7,CCCCCn1c(=N)n(CC(O)COc2cccc(C)c2)c2ccccc21.Cl (stereo not shown) [MMV000444],66.85
8,CC(C)(C)CC(C)(C)NCC(O)COc1ccc(Cl)cc1Cl (stereo not shown) [MMV396794],97.35
9,CN1C=C(c2ccc3ccccc3n2)C(c2c[nH]c3ccccc23)c2ccccc21 (stereo not shown) [MMV008160],-2.32
10,CCOc1c(Cl)cc(CNCC(O)c2ccccc2)cc1OC (stereo not shown) [MMV396632],5.30
11,Cn1c(C(=O)c2cccc3ccccc23)nc2ccccc21 [MMV665824],-1.12
12,CC(C)=CCN1CCC(C(=O)Nc2ccc(-c3nc4ccccc4[nH]3)cc2)CC1 [MMV665946],-26.45
13,CCCCc1ccc(NS(=O)(=O)c2cc3c4c(c2)CCN4C(=O)CC3)cc1 [MMV001255],-110.46
14,COc1ccc(NC(=O)C2c3ccccc3C(=O)N(CC(C)C)C2c2cccs2)cc1 (stereo not shown) [MMV000662],-25.19
15,CCCN(CCC)CC(O)COc1ccccc1C(=O)Nc1ccccc1 (stereo not shown) [MMV006455],-26.39
16,O=C1c2ccc3c4c(ccc(c24)C(=O)N1CCCCO)C(=O)N(CCCCO)C3=O [MMV009085],-6.63
17,Oc1ccc(C(=C(Cl)Cl)c2ccc(O)cc2)cc1 [MMV665949],8.99
18,CCN1CCN(c2c(C(=O)c3ccccc3)cnc3cc(OC)c(OC)cc23)CC1 [MMV008474],-15.22
19,Fc1ccc2[nH]c3c(NCCCN4CCOCC4)ncnc3c2c1 [MMV019871],-31.05
20,CCCCc1c(C)nc2c(OC)cccc2c1O [MMV006820],1.39
21,CN(C)c1ccc(N2C(N)=NC(N)=NC2(C)C)cc1 [MMV667487],-14.53

row,SMILES,PGI (% of DB1127 at 10 uM) [%]
1,Oc1ccc(Br)cc1CN1CCN(Cc2ccc(Cl)cc2)CC1 [MMV665809],-23.13
2,CC1CC(C)CN(C(=O)c2ccc(Cl)cc2Cl)C1 (stereo not shown) [MMV001344],-22.37
3,CCOc1cc(Br)c(C(C)NC(=O)c2cccc(OC)c2)cc1OCC (stereo not shown) [MMV665796],-1.06
4,C=CCc1c(C)nc2ccccc2c1O [MMV006913],-48.01
5,Cc1cc(C=C2SC(=Nc3ccccc3)N(C3CCCC3)C2=O)c(C)n1-c1ccc(Cl)cc1 [MMV666688],-35.93
6,CCOc1ccc2nc(C)cc(Nc3ccc(N(C)C)cc3)c2c1.Cl [MMV007020],-3.98
7,Cc1ccc(C)c(Cn2c(N3CCC(C(=O)NCc4cccs4)CC3)nc3ccccc32)c1 [MMV019741],-17.48
8,Cc1cc(Nc2ccc3ccccc3c2)n2ncnc2n1 [MMV011099],-50.58
9,CC(=O)c1ccc(NC(=O)CSc2nc(-c3ccccc3Cl)ns2)cc1 [MMV666124],-5.85
10,Clc1ccc2[nH]c3c(NCCCN4CCOCC4)ncnc3c2c1 [MMV006587],-6.35
11,CCN(Cc1ccccc1)C1CCN(Cc2cc(Br)ccc2O)CC1.O=C(O)C(=O)O [MMV019127],-5.90
12,COc1ccc(C(=O)C2CC2c2ccc(Cl)cc2)cc1 (stereo not shown) [MMV665924],-13.71
13,Cc1ccccc1OCCSc1nc2ccc(NC(=O)c3ccccc3)cc2s1 [MMV007577],-17.47
14,COc1ccc2c(=O)cc(C(Cl)(Cl)Cl)oc2c1 [MMV665820],-22.08
15,O=C(NC(c1ccccc1)c1ccc2cccnc2c1O)c1ccccc1 (stereo not shown) [MMV666080],-67.16
16,CSC1=NC(=Nc2c(C)cccc2C)C2(CCC(C(C)(C)C)CC2)N1c1ccc(Cl)cc1 (stereo not shown) [MMV666596],-70.72
17,O=C(Nc1ccc(C23CC4CC(CC(c5ccccc5)(C4)C2)C3)cc1)c1cccs1 [MMV007574],-11.28
18,CCCCNc1nc(NC(C)(C)C)nc(NC(C)(C)C)n1 [MMV665864],-36.23
19,COc1ccc(-c2nonc2NC(=O)c2cccc(C)c2)cc1OC [MMV665890],-8.07
